Experiments:
GLP-1 receptor = GLP-1 receptor (Homo sapiens, UniProt P43220); assay: Cell activity test in vitro (cAMP detection, GLP-1 HEK293 cells); format: cell-based; conditions: HEK293 host cell
Method: The cells were constructed by Wuxi New Drug Development Co., Ltd. Shanghai.
The compound was formulated with DMSO to a working concentration of 30 μM. In this test, the usage amount of each sample was 5 μL.
The pH was adjusted to 7.4 and the volume was fixed to 25 mL with HBSS 1×.
Preparation of cAMP detection reagent: 250 μL of cAMP-D2 and 250 μL of anti-cAMP cryptate reagent were added to 4 mL of lysis buffer, and mixed gently.
The test compound was diluted 3 times by 10 points with a starting concentration of 30 μM, and the dilutions were completed by Bravo.
The reference compound exenatide was diluted 3 times by 10 points with a starting concentration of 500 nM, and the dilutions were completed by Bravo.
• 1) 100 nL of compound was transferred to OptiPlate-384 plate using Echo. • 2) OptiPlate-384 plate was centrifuged at 1000 rpm for 5 seconds. c) Preparation of cell suspension • 1) A GLP-1 cell cryopreservation tube was quickly thawed in 37° C. warm water. • 2) The cell suspension was transferred to a Transfer 15 mL of centrifuge tube and gently rinsed with 10 mL of HBSS. • 3) The centrifuge tube was centrifuged at 1000 rpm at room temperature for 1 minute. • 4) The supernatant was discarded. • 5) The cells at the bottom were gently dispersed and gently rinsed with 10 mL of HBSS, then the cells were centrifuged for sedimentation, and finally the cells were re-suspended in experimental buffer. • 6) Cell density and activity were measured by using Vi-cell. • 7) The concentration of GLP-1 cells was diluted to 2.0*10^5/mL with the experimental buffer. • 8) […] of diluted cell suspension was transferred into OptiPlate-384 plate. • 9) The cells were incubated at room temperature for 30 minutes. d) Addition of detection reagents: • 1) 10 μL of 800 nM gradient diluted cAMP standard was added to the empty well of OptiPlate-384 plate. • 2) 10 μL of cAMP detection reagent was added. • 3) OptiPlate-384 plate was covered with TopSeal-A film and incubated for 60 min at room temperature.
The TopSeal-A was removed, and the EnVision reading was performed.

CYP1A2 = molecular target: T1, CYP1A2 (Homo sapiens, UniProt P05177); assay: Cytochrome P450 isoenzyme inhibition, human liver microsomes; format: in vitro ADME
T1 construct: from tissue; host or cells: human liver microsomes
T1 sequence (P05177 1-516): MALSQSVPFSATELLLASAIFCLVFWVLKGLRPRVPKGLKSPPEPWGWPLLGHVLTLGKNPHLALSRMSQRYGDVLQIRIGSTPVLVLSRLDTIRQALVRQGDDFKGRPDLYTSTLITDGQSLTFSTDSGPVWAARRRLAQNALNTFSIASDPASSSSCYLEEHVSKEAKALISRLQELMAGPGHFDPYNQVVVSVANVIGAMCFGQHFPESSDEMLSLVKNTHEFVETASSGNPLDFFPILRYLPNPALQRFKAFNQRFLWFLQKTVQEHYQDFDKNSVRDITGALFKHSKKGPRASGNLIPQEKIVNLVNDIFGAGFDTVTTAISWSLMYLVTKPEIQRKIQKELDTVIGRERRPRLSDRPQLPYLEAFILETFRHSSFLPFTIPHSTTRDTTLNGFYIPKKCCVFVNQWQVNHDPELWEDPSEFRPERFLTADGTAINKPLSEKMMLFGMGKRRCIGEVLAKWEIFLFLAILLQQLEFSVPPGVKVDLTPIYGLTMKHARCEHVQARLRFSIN
Method: (§1) To test the inhibitory effects of the test compounds on the activities of human liver microsomal cytochrome P450 isoenzymes (CYP1A2, CYP2C9, CYP2C19, CYP2D6 and CYP3A4).
(§2) Firstly, the test compound (10.0 mM) was diluted in gradient to prepare a working solution (100× final concentration), and the working solution concentrations were 5.00, 1.50, 0.500, 0.150, 0.0500, 0.0150 and 0.00500 mM respectively. At the same time, the working solution of each positive inhibitor and its specific substrate mixture of P450 isoenzymes (CYP1A2, CYP2C9, CYP2C19, CYP2D6 and CYP3A4) was prepared; the human liver microsomes stored in the refrigerator below −60° C. were thawed on ice. When the human liver microsomes were completely dissolved, then diluted with potassium phosphate buffer (PB) to prepare a working solution with a certain concentration (0.253 mg/mL).
(§3) Firstly, 20.0 μL of substrate mixture was added to the reaction plate (20.0 μL of PB was added to the blank well), then 158 μL of human liver microsome working solution was added to the reaction plate, and the reaction plate was placed on ice for later use. At this time, 2.00 μL of test compound (N=1) and specific inhibitor (N=2) of each concentration were added to the corresponding well, and the group without inhibitor (test compound or positive inhibitor) was added with the corresponding organic solvent as a of control sample (control sample of test compound was dimethyl sulfoxide:methanol=1:1, positive control samples were all dimethyl sulfoxide:methanol=1:9). After pre-incubation in 37° C. water bath for 10 minutes, 20.0 μL of a coenzyme factor (NADPH) solution was added to the reaction plate and incubated in 37° C. water bath for 10 minutes. Then 400 μL of pre-cooled acetonitrile solution (internal standard containing 200 ng/mL tolbutamide and labetalol) was added to stop the reaction; the reaction plate was placed in a shaker and shaken for 10 min to mix evenly. Then the reaction plate was centrifuged at 4° C. and 4000 rpm for 20 min. 200 μL of supernatant was taken and added to 100 μL of water for sample dilution. Finally, the plate was sealed, shaken for 10 minutes to mix evenly for LC/MS/MS detection.

CYP2C19 [1] = molecular target: T2, CYP2C19 (Homo sapiens, UniProt P33261); assay: as above; format: in vitro ADME
T2 construct: human liver microsomes (HLM) were used as the incubation system; from tissue; host or cells: human liver microsomes
Method: as §1, §2, §3

CYP2C9 = molecular target: T3, CYP2C9 (Homo sapiens, UniProt P11712); assay: as above; format: in vitro ADME
T3 construct: from tissue; host or cells: human liver microsomes
Method: as §1, §2, §3

CYP2D6 = molecular target: T4, CYP2D6 (Homo sapiens, UniProt P10635); assay: as above; format: in vitro ADME
T4 construct: from tissue; host or cells: human liver microsomes
Method: as §1, §2, §3

CYP3A4 = molecular target: T5, CYP3A4 (Homo sapiens, UniProt P08684); assay: as above; format: in vitro ADME; conditions: CYP3A4-M
T5 construct: from tissue; host or cells: human liver microsomes
Method: as §1, §2, §3

CYP2C19 [2] = molecular target: T2, CYP2C19; assay: Cytochrome P450 isoenzyme time-dependent inhibition, human liver microsomes; format: in vitro ADME
Method: To test the time-dependent inhibitory effect of the test compounds on the activity of human liver microsomal cytochrome P450 isoenzyme CYP2C19.
The experiment was divided into two groups. In the first group, human liver microsomes (HLM) were used as the incubation system, and a series of concentrations of test samples were added to the incubation system, and then coenzyme factor (NADPH) solution was added, and pre-incubated at 37° C. for 30 minutes. After pre-incubation, the probe substrate solution was added, and after incubation for a certain time, the reaction was terminated; the amount of probe substrate metabolites produced in the incubation solution was measured, and the enzyme activity was calculated. The second group of reactions was to use human liver microsomes (HLM) as the incubation system, and a series of concentrations of test samples were added to the incubation system, and then potassium phosphate buffer was added, and pre-incubated at 37° C. for 30 minutes. After pre-incubation, a mixed solution of NADPH and probe substrate was added. After incubation for a certain time, the reaction was terminated, the amount of probe substrate metabolites produced in the incubation solution was measured, and the enzyme activity was calculated.
Firstly, the test compound (10.0 mM) was diluted in gradient to prepare a working solution (100× final concentration), and the working solution concentrations were 5.00, 1.65, 0.500, 0.165, 0.0500, 0.0165 and 0.00500 mM respectively. At the same time, the positive inhibitor of P450 isoenzyme CYP2C19, probe substrate and NADPH working solution were prepared; the human liver microsomes stored in the refrigerator below −60° C. were thawed on ice. When the human liver microsomes were completely dissolved, then diluted with potassium phosphate buffer (PB) to prepare a working solution with a certain concentration (0.169 mg/mL).
Then 147.5 μL of human liver microsome working solution was added to the reaction plate, and the reaction plate was placed on ice for use. […]

[3] = Cynomolgus monkey in vivo DMPK study; conditions: male cynomolgus monkeys, single oral 0.5 mg/kg
Method: Male cynomolgus monkeys were used as test animals, and the plasma concentration of the compound was determined after a single oral administration and the pharmacokinetic behavior was evaluated.
Two healthy male cynomolgus monkeys (fasting) were selected as the oral group. Oral vehicle was 20% hydroxypropyl-p-cyclodextrin aqueous solution. After the test compound was mixed with the vehicle, vortexed and sonicated to prepare 0.1 mg/mL approximately clear solution. The oral dosage of cynomolgus monkey was 0.5 mg/kg. After oral administration, whole blood was collected for a certain time to prepare plasma. The drug concentration was analyzed by LC-MS/MS method, and the pharmacokinetic parameters were calculated by Phoenix WinNonlin 6.3.

T4 sequence (P10635 whole entry): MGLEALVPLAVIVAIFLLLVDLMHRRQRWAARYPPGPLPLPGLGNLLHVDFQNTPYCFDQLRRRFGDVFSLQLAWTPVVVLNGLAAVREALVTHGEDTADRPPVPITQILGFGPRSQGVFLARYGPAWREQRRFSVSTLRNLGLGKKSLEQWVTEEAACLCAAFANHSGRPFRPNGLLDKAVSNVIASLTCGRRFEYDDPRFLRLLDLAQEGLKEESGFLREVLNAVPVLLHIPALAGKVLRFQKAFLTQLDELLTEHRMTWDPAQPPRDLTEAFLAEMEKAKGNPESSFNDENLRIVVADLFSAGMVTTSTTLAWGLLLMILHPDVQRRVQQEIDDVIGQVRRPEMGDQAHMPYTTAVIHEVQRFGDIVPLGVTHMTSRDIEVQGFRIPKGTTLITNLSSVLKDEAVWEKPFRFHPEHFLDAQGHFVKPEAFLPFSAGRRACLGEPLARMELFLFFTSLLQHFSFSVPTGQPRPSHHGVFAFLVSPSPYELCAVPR
T5 sequence (P08684 whole entry): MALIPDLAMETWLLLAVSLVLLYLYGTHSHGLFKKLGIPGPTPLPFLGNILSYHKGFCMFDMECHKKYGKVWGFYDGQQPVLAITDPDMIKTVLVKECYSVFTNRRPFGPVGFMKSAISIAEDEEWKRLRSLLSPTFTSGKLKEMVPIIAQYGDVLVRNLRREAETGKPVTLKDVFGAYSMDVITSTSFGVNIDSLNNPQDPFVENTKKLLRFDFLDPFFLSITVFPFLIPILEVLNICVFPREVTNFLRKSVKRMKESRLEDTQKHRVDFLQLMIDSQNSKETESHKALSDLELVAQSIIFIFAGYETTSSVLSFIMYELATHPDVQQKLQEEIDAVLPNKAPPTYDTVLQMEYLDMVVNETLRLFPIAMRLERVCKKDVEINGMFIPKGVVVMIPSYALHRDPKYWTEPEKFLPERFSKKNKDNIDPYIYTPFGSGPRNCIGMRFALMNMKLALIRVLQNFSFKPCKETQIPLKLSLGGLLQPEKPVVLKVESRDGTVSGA
Sequence of GLP-1 receptor (P43220 24-463): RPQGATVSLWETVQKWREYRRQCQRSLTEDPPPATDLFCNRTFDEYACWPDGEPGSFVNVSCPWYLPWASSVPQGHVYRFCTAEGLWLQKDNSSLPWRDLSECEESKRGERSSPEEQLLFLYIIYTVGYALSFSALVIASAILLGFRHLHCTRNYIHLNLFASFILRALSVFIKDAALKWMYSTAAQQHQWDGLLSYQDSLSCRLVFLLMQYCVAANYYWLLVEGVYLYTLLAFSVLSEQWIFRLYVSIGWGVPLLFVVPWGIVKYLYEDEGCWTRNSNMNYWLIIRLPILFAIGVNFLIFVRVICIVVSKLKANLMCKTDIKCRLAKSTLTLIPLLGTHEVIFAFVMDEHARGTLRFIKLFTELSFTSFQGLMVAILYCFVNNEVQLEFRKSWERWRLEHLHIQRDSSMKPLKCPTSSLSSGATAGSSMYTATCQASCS
T3 sequence (P11712 whole entry): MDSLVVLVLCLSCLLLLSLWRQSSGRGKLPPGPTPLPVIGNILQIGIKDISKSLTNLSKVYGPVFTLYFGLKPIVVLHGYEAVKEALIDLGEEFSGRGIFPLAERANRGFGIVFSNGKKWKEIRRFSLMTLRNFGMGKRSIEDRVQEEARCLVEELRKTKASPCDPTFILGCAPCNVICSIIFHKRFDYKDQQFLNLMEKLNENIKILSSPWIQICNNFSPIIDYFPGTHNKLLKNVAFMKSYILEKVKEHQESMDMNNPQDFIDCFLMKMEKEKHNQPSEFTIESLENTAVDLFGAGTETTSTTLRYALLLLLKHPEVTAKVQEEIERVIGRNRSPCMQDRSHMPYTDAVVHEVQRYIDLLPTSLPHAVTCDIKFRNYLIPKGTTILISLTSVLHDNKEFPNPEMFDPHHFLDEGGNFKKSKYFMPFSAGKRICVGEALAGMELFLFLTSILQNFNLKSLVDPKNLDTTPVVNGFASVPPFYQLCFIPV
T2 sequence (P33261 whole entry): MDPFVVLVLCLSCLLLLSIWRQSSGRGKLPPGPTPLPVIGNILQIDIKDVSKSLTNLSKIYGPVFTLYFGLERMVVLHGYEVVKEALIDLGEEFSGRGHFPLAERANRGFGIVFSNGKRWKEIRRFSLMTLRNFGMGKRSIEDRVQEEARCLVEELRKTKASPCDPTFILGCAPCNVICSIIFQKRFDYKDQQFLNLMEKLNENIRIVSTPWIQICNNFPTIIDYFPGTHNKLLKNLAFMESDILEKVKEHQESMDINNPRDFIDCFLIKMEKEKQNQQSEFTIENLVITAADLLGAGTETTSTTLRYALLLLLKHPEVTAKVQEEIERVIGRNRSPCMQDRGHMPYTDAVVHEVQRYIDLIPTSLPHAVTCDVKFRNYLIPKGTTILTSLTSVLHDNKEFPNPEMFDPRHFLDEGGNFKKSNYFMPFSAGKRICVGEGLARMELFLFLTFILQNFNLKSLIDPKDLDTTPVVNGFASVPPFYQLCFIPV

| SMILES | EC50 (GLP-1 receptor) [µM] | IC50 (CYP1A2) [µM] | IC50 (CYP2C19 [1]) [µM] | IC50 (CYP2C9) [µM] | IC50 (CYP2D6) [µM] | IC50 (CYP3A4) [µM] | Time-dependent inhibition (Yes or No) (CYP2C19 [2]) | IC50 (CYP2C19 [2]; 30 min pre-incubation with NADPH) [µM] | IC50 (CYP2C19 [2]; 30 min pre-incubation without NADPH) [µM] | half-life ([3]; cynomolgus monkey, plasma) [h] | Cmax ([3]; cynomolgus monkey, plasma) [nM] | Oral DNAUC ([3]; DNAUC = AUCPO/Dose) [nM · h/mpk] |
| --- | --- | --- | --- | --- | --- | --- | --- | --- | --- | --- | --- | --- |
| CC1(c2ccc(Cl)cc2F)Oc2cccc(C3CCN(Cc4nc5sc(C(=O)O)c(F)c5n4C[C@@H]4CCO4)CC3)c2O1 (single isomer, unassigned) [Compound 006] | 0.00039 | 38.8 | > 50 | 21.6 | > 50 | 48.7 |  |  |  |  |  |  |
| CC1(c2ccc(Cl)cc2F)Oc2cccc(N3CCN(Cc4nc5sc(C(=O)O)cc5n4CC4CCO4)CC3)c2O1 (single isomer, unassigned) [Compound 005A] | 0.00015 | > 50 | > 50 | 30.8 | > 50 | > 50 | No | > 50 | 44.3 |  |  |  |
| C[C@]1(c2ccc(C#N)cc2F)Oc2cccc(C3=CCN(Cc4nc5sc(C(=O)O)cc5n4C[C@@H]4CCO4)CC3)c2O1 [Compound 011A] | 0.00033 |  |  |  |  |  |  |  |  |  |  |  |
| CC1(c2ccc(Cl)cc2F)Oc2cccc(C3CCN(Cc4nc5sc(C(=O)O)cc5n4C[C@@H]4CCO4)CC3)c2O1 (single isomer, unassigned) [Compound 004] | 0.0002 | 43.7 | 23.6 | 31.9 | > 50 | 40.8 |  |  |  | 3.94 | 132 | 1056 |
| C[C@]1(c2ccc(C#N)cc2F)Oc2cccc(C3=CCN(Cc4nc5cc(C(=O)O)sc5n4C[C@@H]4CCO4)CC3)c2O1 [Compound 011B] | 0.00152 |  |  |  |  |  |  |  |  |  |  |  |

Source: patent US12679851B2, “Methyl-substituted benzobisoxazole compound and use thereof” (TONGHUA DONGBAO PHARMACEUTICAL CO., LTD., priority 2020, dated 2026)
